# Test results taken from patent publication US20010007657A1, “Compositions and methods for manipulating glial progenitor cells and treating neurological deficits” (priority 1997, published 2001).
# Assays:
# Type in all cases: in vivo, rat
# [1] = tested on: neural precursor cells of the subependymal zone; assay: Periventricular cellular expansion and striatal ridge formation (thionin, silver staining, immunohistochemistry); details: for (incidence of striatal ridge) / Expansion (incidence of cellular expansion along ventricle): midstriatal infusion 0.5 μg/day
# Description: Adult male Sprague-Dawley rats weighing 250-300 grams were used throughout the study. Twenty-four animals received standard midstriatal infusions of rat TGFα (0.5 μg/day; Sigma Chemical Co.). Another 26 rats received either artificial cerebrospinal fluid (“aCSF”) or no infusion. A subset of animals in the standard TGFα infusion group and the control group received stereotaxic 6-OHDA injections into the substantia nigra 48 hours after the infusions were begun. Animals used in this portion of the study were classified into six groups according to their infusion-lesion combination, as follows: TGFα infusion, lesion (n=13); TGFα infusion, no lesion (n=11); aCSF infusion, lesion (n=12); aCSF infusion, no lesion (n=9); no infusion, lesion (n=1); no infusion, no lesion (n=4).
# Additional animals received TGFα infusions into other regions of striatum, the lateral ventricle, cerebral cortex, or the septum. Four more animals (two per group) received midstriatal TGFα infusions at one-half or one-tenth the standard dose. Also, two animals received midstriatal infusions of epidermal growth factor (EGF) instead of TGFα. The EGF administered in these rats was at the standard 0.5 μg/day dose. All of the animals in these extra groups were lesioned. Rats in all of the experiments were typically perfused one to 16 days postlesion (3-18 days of infusion). […] Brain sections were prepared and stained using various immunocytochemical and histochemical techniques.
# Rats were anesthetized with 8 mg xylazine and 100 mg ketamine/kg. Infusions of TGFα were provided up to 18 days by Alzet osmotic minipump (2002). The minipumps were filled to about 200 μl with either aCSF for control animals or 20 μg TGFα in 400 μl of aCSF (50 μg/ml) for experimental animals. Under sterile conditions, the infusion cannula was positioned to stereotaxic coordinates (+1.2 A/P; +2.7 M/L; −6.0 D/V) based on Bregma (Paxinos and Watson, The Rat Brain in Stereotaxic Coordinates, Academic Press, San Diego, 1986) and cemented to the top of the skull with dental cement. The infusate was delivered via cannula at approximately 0.5 μl/hour. Some additional control animals received infusions either into the lateral ventricle, the overlying cortex, or other areas.
# Forty-eight hours after the minipump implant, rats were anesthetized as above. A chilled 4.8 mg/ml solution of 6-OHDA HCl was prepared immediately prior to injection. […] A 6-8 μl volume was injected at a rate of 1 μl/minute.
# Animals were perfused with 500 ml of 4% paraformaldehyde in 0.1 M phosphate buffered saline (PBS; pH 7.4) one to 16 days postlesion and their brains placed into 20% sucrose. The next day, the brains were frozen in isopentane at −20° C. Forty-micron coronal sections were then cut on a freezing microtome into 2% paraformaldehyde in 0.1 M PBS. Continuous sections were taken through the striatum and substantia nigra-VTA. Representative sections were taken through the rest of the brain.
# Microtomed brain sections for Nissl staining were mounted onto gelatin-coated slides and allowed to dry overnight. They were then dehydrated and rehydrated through ethanol baths, and placed in Thionin solution for approximately four minutes. The sections were dehydrated through the series of ethanol baths, cleared in successive Histoclear™ washes, and coverslipped. Section were viewed under light microscopy and photographed with Technical Pan Film™ (Kodak, Inc.) at ISO 100 (HC-110 processing for six minutes).
# Degenerating fibers and cells of the ridge were labeled using a modification to the Nauta staining method, similar to Procedure I of Fink-Heimer (Giolli and Karamanlidis, In: Neuroanatomical Research Techniques, R. T. Robertson, Ed., pp. 211-240, Academic Press, New York, 1978).
# [2] = tested on: stem and neuroprogenitor cells in the SVZ; assay: Morphological studies of proliferation, directed migration and differentiation induction (Example 3)
# Description: In situ hybridization histochemistry: TGFα mRNA probes were generated from a 550 nucleotide XbaI/BamHI cDNA fragment from the 5′ end of rat TGFα, subcloned into pGEM 7Zf (Promega, Inc). Antisense and sense probes were transcribed with SP6 and T7 polymerases, respectively. Rat EGF receptor mRNA probes were produced from a 718 base pair BamHI/SphI insert from the 5′ end of the gene in pGEM 7Zf. Probes for rat TH were created using the […] BamHI/EcoRI fragment subcloned into pGEM 7Zf. Antisense subclones for EGF receptor and TH were transcribed with T7 polymerase. Sense subclones for EGF receptor and TH were transcribed with SP6 polymerase. All probes were radiolabeled by transcription in the presence of [35S]UTP (NEN Research, Inc). In situ nucleic acid hybridization was performed according to Simmons (1989) J. Histochem. 12:169-181). Parallel sections from experimental and control animals were hybridized overnight at 65° C. with sense or antisense probes at a concentration of […]. Adjacent sections from the same animals were hybridized to each of the probes so that direct comparison could be made of their anatomical distributions. […] After successful development of the autoradiography film, analysis and quantitation was done using MCID (Imaging Research, Inc).
# [3] = tested on: neural precursor cells of the subependymal zone; assay: Periventricular cellular expansion and striatal ridge formation (thionin, silver staining, immunohistochemistry); details: three months after the TGFα infusion pump was removed
# [4] = intracerebroventricular (ICV) infusion ipsilateral to lesion, two weeks
# [5] = lower doses of TGFα (one-half or one-tenth the standard dose), lesioned
substance,measurement,setting,value
"TGFα: transforming growth factor alpha polypeptide, EGF-family growth factor that binds the EGF receptor; infused into rat brain","difference in distance between lateral extents of the ridges and the ventricle wall, 12 vs 16 days of infusion","[1]; 6-OHDA lesion, midstriatal TGFα",approximately 1.6 mm
same,distance of ventral portion of the ridge from the ventricle wall,"[1]; 12 days infusion, 6-OHDA lesion, midstriatal TGFα",≤ 400 μm
same,distance of ventral portion of the ridge from the ventricle,"[1]; 16 days infusion, 6-OHDA lesion, midstriatal TGFα",up to two mm
same,nestin immunostaining of the ridge,"[1]; TGFα infusion fourteen days, lesioned",intensely stained
same,GFAP immunostaining of striatal ridge and cellular expansion,"[1]; TGFα-induced ridge, two weeks of infusion",failed to stain
same,expansion of cells along the ipsilateral ventricle,"[1]; cortical infusions slightly penetrating the corpus callosum, two weeks, lesioned",stimulated expansion of cells
same,cell density along the lateral ventricle,"[1]; dorsal cortical infusions not penetrating the corpus callosum, two weeks, lesioned",no discernable effect
same,buildup of cells in the adjacent ventricular wall,[1]; [4],stimulated the buildup of cells
same,formation of the striatal ridge,[1]; [4],did not induce formation of the striatal ridge
same,buildup of cells along the ventricle ipsilateral to the infusion (thionin),[1]; intrastriatal TGFα infusions of six days or more,dramatic buildup of cells
same,cellular expansion and ridge formation,[1]; [5],induced both the cellular expansion and ridge formation
same,number of cells in expansion and ridge (qualitative),[1]; [5],decreased
same,(incidence of striatal ridge),"[1]; 6-OHDA lesion, n=13",92%
same,Expansion (incidence of cellular expansion along ventricle),"[1]; 6-OHDA lesion, n=13",100%
same,(incidence of striatal ridge),"[1]; no lesion, n=11",27%
same,Expansion (incidence of cellular expansion along ventricle),"[1]; no lesion, n=11",100%
same,formation of septal ridges,"[1]; septal and some striatal infusions, two weeks, lesioned",stimulated the formation of septal ridges
same,expression of EGFr mRNA in the SVZ,[2]; 6-OHDA lesion and TGF alpha infusion,significant increase
same,expression of EGFr mRNA in the SVZ,"[2]; TGF alpha infusion, no 6-OHDA lesion",significant increase
same,persistence of the ridge in the striatum,[3],still prominent
